# Measured values taken from patent US20230340012A1, “NATURAL AND SYNTHETIC COMPOUNDS FOR TREATING CANCER AND OTHER DISEASES” (PACIFIC ARROW LIMITED, priority 2009, published 2023).
# Test system: cancer cells
# Assay: MTT cytotoxic assay of esterification products (Cytotoxicity activity)
# Type: cell-based, human
# Method in brief: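 Cytotoxicity was read by MTT (Carmichael method, modified), with cells seeded 24 h ahead of treatment. Sixteen human cancer lines spanning bone, lung, bladder, ovary, colon, pancreas, prostate, skin, mouth, kidney, breast, liver, brain, leukemia and cervix were used. Test samples were acyl chloride esterification products of triterpenes, as mixtures or HPLC-purified compounds.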
# [1] = E4A esterified with Cinnamoyl chloride (Cin = Cinnamoyl), compounds isolated with HPLC
# [2] = E4A esterified with 2-propenoyl chloride (Ppe = Propenoyl), compounds isolated with HPLC
# [3] = E4A esterified with Propionyl chloride (Ppi = Propionyl), compounds isolated with HPLC
# [4] = E4A esterified with benzoyl chloride (Ben = benzoyl), compounds isolated with HPLC
# [5] = esterification products of core compound E4A with (2E)-2-pentenoyl chloride (2pe = 2-pentenoyl)
# [6] = esterification products of core compound E4A with Butyryl chloride (But = Butyryl)
# [7] = esterification products of core compound E4A with Decanoyl chloride (Dec = Decanoyl)
# [8] = esterification products of core compound E4A with Isobutyryl chloride (Iso = Isobutyryl)
# [9] = esterification products of core compound E4A with Myristoyl chloride (Myr = Myristoyl)
# [10] = esterification products of core compound E4A with Octanoyl chloride (Oct = Octanoyl)
smiles,measurement,setting,value
CC1(C)CC2C3=CCC4C5(C)CCC(OC(=O)C=Cc6ccccc6)C(C)(COC(=O)C=Cc6ccccc6)C5CCC4(C)C3(C)CC(OC(=O)C=Cc3ccccc3)C2(COC(=O)C=Cc2ccccc2)C(O)C1O (stereo not shown) [Compound J10],Cytotoxicity activity,[1],weak
CC1(C)CC2C3=CCC4C5(C)CCC(OC(=O)C=Cc6ccccc6)C(C)(COC(=O)C=Cc6ccccc6)C5CCC4(C)C3(C)CC(O)C2(COC(=O)C=Cc2ccccc2)C(O)C1OC(=O)C=Cc1ccccc1 (stereo not shown) [Compound J11],Cytotoxicity activity,[1],weak
CC1(C)CC2C3=CCC4C5(C)CCC(O)C(C)(COC(=O)C=Cc6ccccc6)C5CCC4(C)C3(C)CC(OC(=O)C=Cc3ccccc3)C2(COC(=O)C=Cc2ccccc2)C(OC(=O)C=Cc2ccccc2)C1O (stereo not shown) [Compound J12],Cytotoxicity activity,[1],weak
CC1(C)CC2C3=CCC4C5(C)CCC(O)C(C)(COC(=O)C=Cc6ccccc6)C5CCC4(C)C3(C)CC(OC(=O)C=Cc3ccccc3)C2(COC(=O)C=Cc2ccccc2)C(O)C1OC(=O)C=Cc1ccccc1 (stereo not shown) [Compound J13],Cytotoxicity activity,[1],weak
CC1(C)CC2C3=CCC4C5(C)CCC(OC(=O)C=Cc6ccccc6)C(C)(COC(=O)C=Cc6ccccc6)C5CCC4(C)C3(C)CC(O)C2(COC(=O)C=Cc2ccccc2)C(OC(=O)C=Cc2ccccc2)C1OC(=O)C=Cc1ccccc1 (stereo not shown) [Compound J15],Cytotoxicity activity,[1],weak
CC1(C)CC2C3=CCC4C5(C)CCC(O)C(C)(COC(=O)C=Cc6ccccc6)C5CCC4(C)C3(C)CC(OC(=O)C=Cc3ccccc3)C2(COC(=O)C=Cc2ccccc2)C(OC(=O)C=Cc2ccccc2)C1OC(=O)C=Cc1ccccc1 (stereo not shown) [Compound J16],Cytotoxicity activity,[1],weak
CC1(C)CC2C3=CCC4C5(C)CCC(OC(=O)C=Cc6ccccc6)C(C)(COC(=O)C=Cc6ccccc6)C5CCC4(C)C3(C)CC(OC(=O)C=Cc3ccccc3)C2(COC(=O)C=Cc2ccccc2)C(O)C1OC(=O)C=Cc1ccccc1 (stereo not shown) [Compound J17],Cytotoxicity activity,[1],weak
CC1(C)CC2C3=CCC4C5(C)CCC(OC(=O)C=Cc6ccccc6)C(C)(COC(=O)C=Cc6ccccc6)C5CCC4(C)C3(C)CC(OC(=O)C=Cc3ccccc3)C2(COC(=O)C=Cc2ccccc2)C(OC(=O)C=Cc2ccccc2)C1O (stereo not shown) [Compound J18],Cytotoxicity activity,[1],weak
CC1(C)CC2C3=CCC4C5(C)CCC(OC(=O)C=Cc6ccccc6)C(C)(COC(=O)C=Cc6ccccc6)C5CCC4(C)C3(C)CC(OC(=O)C=Cc3ccccc3)C2(COC(=O)C=Cc2ccccc2)C(OC(=O)C=Cc2ccccc2)C1OC(=O)C=Cc1ccccc1 (stereo not shown) [Compound J19],Cytotoxicity activity,[1],none
CC1(C)CC2C3=CCC4C5(C)CCC(O)C(C)(CO)C5CCC4(C)C3(C)CC(O)C2(COC(=O)C=Cc2ccccc2)C(OC(=O)C=Cc2ccccc2)C1OC(=O)C=Cc1ccccc1 (stereo not shown) [Compound J20],Cytotoxicity activity,[1],moderate
CC1(C)CC2C3=CCC4C5(C)CCC(O)C(C)(COC(=O)C=Cc6ccccc6)C5CCC4(C)C3(C)CC(O)C2(CO)C(OC(=O)C=Cc2ccccc2)C1OC(=O)C=Cc1ccccc1 (stereo not shown) [Compound J21],Cytotoxicity activity,[1],moderate
CC1(C)CC2C3=CCC4C5(C)CCC(O)C(C)(CO)C5CCC4(C)C3(C)CC(OC(=O)C=Cc3ccccc3)C2(CO)C(OC(=O)C=Cc2ccccc2)C1OC(=O)C=Cc1ccccc1 (stereo not shown) [Compound J22],Cytotoxicity activity,[1],moderate
CC1(C)CC2C3=CCC4C5(C)CCC(OC(=O)C=Cc6ccccc6)C(C)(CO)C5CCC4(C)C3(C)CC(O)C2(CO)C(OC(=O)C=Cc2ccccc2)C1OC(=O)C=Cc1ccccc1 (stereo not shown) [Compound J23],Cytotoxicity activity,[1],moderate
CC1(C)CC2C3=CCC4C5(C)CCC(O)C(C)(CO)C5CCC4(C)C3(C)CC(O)C2(CO)C(OC(=O)C=Cc2ccccc2)C1OC(=O)C=Cc1ccccc1 (stereo not shown) [Compound J24],Cytotoxicity activity,[1],moderate
CC1(C)CC2C3=CCC4C5(C)CCC(O)C(C)(CO)C5CCC4(C)C3(C)CC(O)C2(COC(=O)C=Cc2ccccc2)C(O)C1OC(=O)C=Cc1ccccc1 (stereo not shown) [Compound J25],Cytotoxicity activity,[1],moderate
CC1(C)CC2C3=CCC4C5(C)CCC(O)C(C)(CO)C5CCC4(C)C3(C)CC(O)C2(COC(=O)C=Cc2ccccc2)C(OC(=O)C=Cc2ccccc2)C1O (stereo not shown) [Compound J26],Cytotoxicity activity,[1],moderate
CC1(C)CC2C3=CCC4C5(C)CCC(OC(=O)C=Cc6ccccc6)C(C)(CO)C5CCC4(C)C3(C)CC(O)C2(COC(=O)C=Cc2ccccc2)C(O)C1O (stereo not shown) [Compound J27],Cytotoxicity activity,[1],moderate
CC1(C)CC2C3=CCC4C5(C)CCC(O)C(C)(CO)C5CCC4(C)C3(C)CC(OC(=O)C=Cc3ccccc3)C2(COC(=O)C=Cc2ccccc2)C(O)C1O (stereo not shown) [Compound J28],Cytotoxicity activity,[1],moderate
CC1(C)CC2C3=CCC4C5(C)CCC(O)C(C)(COC(=O)C=Cc6ccccc6)C5CCC4(C)C3(C)CC(O)C2(CO)C(O)C1OC(=O)C=Cc1ccccc1 (stereo not shown) [Compound J29],Cytotoxicity activity,[1],moderate
CC1(C)CC2C3=CCC4C5(C)CCC(O)C(C)(COC(=O)C=Cc6ccccc6)C5CCC4(C)C3(C)CC(O)C2(CO)C(OC(=O)C=Cc2ccccc2)C1O (stereo not shown) [Compound J30],Cytotoxicity activity,[1],moderate
CC1(C)CC2C3=CCC4C5(C)CCC(OC(=O)C=Cc6ccccc6)C(C)(COC(=O)C=Cc6ccccc6)C5CCC4(C)C3(C)CC(O)C2(CO)C(O)C1O (stereo not shown) [Compound J31],Cytotoxicity activity,[1],moderate
CC1(C)CC2C3=CCC4C5(C)CCC(O)C(C)(COC(=O)C=Cc6ccccc6)C5CCC4(C)C3(C)CC(OC(=O)C=Cc3ccccc3)C2(CO)C(O)C1O (stereo not shown) [Compound J32],Cytotoxicity activity,[1],moderate
CC1(C)CC2C3=CCC4C5(C)CCC(O)C(C)(COC(=O)c6ccccc6)C5CCC4(C)C3(C)CC(OC(=O)c3ccccc3)C2(COC(=O)c2ccccc2)C(OC(=O)c2ccccc2)C1O (stereo not shown) [Compound K12],Cytotoxicity activity,[2],weak
same,Cytotoxicity activity,[3],weak
same,Cytotoxicity activity,[4],weak
same,Cytotoxicity activity,[5],weak
same,Cytotoxicity activity,[6],weak
same,Cytotoxicity activity,[7],weak
same,Cytotoxicity activity,[8],weak
same,Cytotoxicity activity,[9],weak
same,Cytotoxicity activity,[10],weak
CC1(C)CC2C3=CCC4C5(C)CCC(O)C(C)(COC(=O)c6ccccc6)C5CCC4(C)C3(C)CC(OC(=O)c3ccccc3)C2(COC(=O)c2ccccc2)C(O)C1OC(=O)c1ccccc1 (stereo not shown) [Compound K13],Cytotoxicity activity,[2],weak
same,Cytotoxicity activity,[3],weak
same,Cytotoxicity activity,[4],weak
same,Cytotoxicity activity,[5],weak
same,Cytotoxicity activity,[6],weak
same,Cytotoxicity activity,[7],weak
same,Cytotoxicity activity,[8],weak
same,Cytotoxicity activity,[9],weak
same,Cytotoxicity activity,[10],weak
CC1(C)CC2C3=CCC4C5(C)CCC(OC(=O)c6ccccc6)C(C)(COC(=O)c6ccccc6)C5CCC4(C)C3(C)CC(O)C2(COC(=O)c2ccccc2)C(OC(=O)c2ccccc2)C1O (stereo not shown) [Compound K14],Cytotoxicity activity,[2],weak
same,Cytotoxicity activity,[3],weak
same,Cytotoxicity activity,[4],weak
same,Cytotoxicity activity,[5],weak
same,Cytotoxicity activity,[6],weak
same,Cytotoxicity activity,[7],weak
same,Cytotoxicity activity,[8],weak
same,Cytotoxicity activity,[9],weak
same,Cytotoxicity activity,[10],weak
CC1(C)CC2C3=CCC4C5(C)CCC(OC(=O)c6ccccc6)C(C)(COC(=O)c6ccccc6)C5CCC4(C)C3(C)CC(O)C2(COC(=O)c2ccccc2)C(OC(=O)c2ccccc2)C1OC(=O)c1ccccc1 (stereo not shown) [Compound K15],Cytotoxicity activity,[2],weak
same,Cytotoxicity activity,[3],weak
same,Cytotoxicity activity,[4],weak
same,Cytotoxicity activity,[5],weak
same,Cytotoxicity activity,[6],weak
same,Cytotoxicity activity,[7],weak
same,Cytotoxicity activity,[8],weak
same,Cytotoxicity activity,[9],weak
same,Cytotoxicity activity,[10],weak
